# Assay results from patent US10300027B2, “Effective sensitizing dose of a gelled immunomodulating topical composition” (Phio Pharmaceuticals Corp., priority 2010, dated 2019).
# “And” between values parts separate entries of the source, which are not always exact repeats. Equal values may be shown once.
# Legend:
# [1] = test system: non-genital warts; assay: Example 2: randomized, double-blind, placebo control study, 0.04% DPCP gel twice a week for non-genital warts; assay type: in vivo, human; set-up: key to Clearance Score: 3 points=Complete clearance; 2 points=partial clearance: >50% reduction in the area of all treated wart; 1 point=partial eradication: <50% reduction in the area of all treated warts; 0 points=treatment failure: complete or partial eradication not achieved; details: for Clearance Score: per wart of one subject
# Method: Institutional review board approval was obtained for this study, which was performed using Good Clinical Practice Guidelines and was compliant with the Code of Federal Regulation of the US Food and Drug Administration. A single center, 24 subject, randomized, double-blind, placebo control study using low dose DPCP in a non-volatile vehicle for the treatment of non-genital warts of established.
# Patients are assigned to a treatment or placebo group in a 2:1 fashion. The two study gels are identical in appearance. Both groups are sensitized with 0.1 ml of 0.4% DPCP gel which is applied to the inner arm and washed off in 24 hours. Fourteen days after the sensitization dose, 0.1 ml of 0.04% DPCP gel or placebo is applied to each wart, up to a total of 4 warts, […] for 7 consecutive weeks (Day 14, 21, 28, 35, 42, 49, 56, […]). A final follow-up examination is performed on day 77. Patients are assessed at baseline and during office visits on days 14, 28, and 63 and on the day 77 follow up visit.
# Efficacy is based on Lesion Surface Area. The size of each qualifying verruca wart is determined at each visit by measuring the longest dimension (long axis) and the corresponding widest dimension (90 to the long axis).
# Investigator's Global Assessment Score (IGAS) is calculated based upon the following 4 point scale: 3 points=Complete clearance; 2 points=partial clearance: >50% reduction in the area of all treated wart; 1 point=partial eradication: <50% reduction in the area of all treated warts; 0 points=treatment failure: complete or partial eradication not achieved.
# Immunotherapeutic responses are characterized by grading the erythema, edema, induration, and scaling on a four-point scale: 0 (none) to 4 severe at each visit.
# (§1) Efficacy endpoints are determined based on the percent of patients achieving complete and partial eradication as measured by IGAS and reductions in warts lesion surface area. Subjects are assessed for the extent of their immunotherapeutic response to treatment based upon the degree of erythema, edema, induration and scaling. Safety is evaluated at each visit by recording and grading adverse events and ease of ambulation 4 point grading system is used.
# All subjects (both treated and placebo groups) are sensitized with the initial sensitizing dose of 0.4% DPCP gel applied directly to one target wart and to the inner aspect of the right arm and then covered with an occlusive adhesive bandage pad for 24 hours.
# The Investigator can determine if sensitization occurred at either of the application sites. If on day 14, the first “treatment visit”, no visible evidence of skin sensitization is observed then the subject can be dropped from the study. If on day 14 the investigator determines that sensitization has occurred, than the first treatment dose using the challenge dose (0.04% DPCP gel or placebo) randomly assigned upon enrollment can be administered by the investigator to all target warts and then covered with an occlusive adhesive bandage pad for 24 hours.
# The patient is provided with a tube containing the appropriate challenge product (0.04% DPCP gel or placebo) with detailed instructions on how to apply the product two times per week and the proper handling and storage of the product between applications.
# Two times per week the patient can apply the treatment dose (0.04% DPCP gel or placebo) to all target warts and then cover with an occlusive adhesive bandage pad for 24 hours.
# The Investigator can apply the treatment dose (0.04% DPCP gel or placebo) to all target warts and then cover with an occlusive adhesive bandage pad for 24 hours.
# The Investigator can apply the treatment dose (0.04% DPCP gel or placebo) to all target warts and then cover with an occlusive adhesive bandage pad for 24 hours. […] This is the final treatment. The patient is instructed to stop at home treatments and should return any unused gel. […]
# [2] = general statement, no test described; cited from earlier work
# [3] = test system: non-genital warts; assay: Example 1: randomized, double-blind, placebo control study of low dose DPCP gel for non-genital warts; assay type: in vivo, human
# Method: Patients were initially sensitized with 0.4% DPCP gel at the primary wart site. Approximately 14 days later and weekly thereafter for various periods, a challenge dose is then applied. A challenge dose of 0.04% DPCP was employed. The DPCP used was incorporated in a unique blend of surfactants, a viscosity agent, and a preservative.
# A single center, randomized, double-blind, placebo control study using low dose DPCP in a non-volatile vehicle for the treatment of non-genital warts was conducted. Patients were assigned to a treatment or placebo group in a 2:1 fashion. The two study gels were identical in appearance. The treatment group was sensitized with 0.1 ml of 0.4% DPCP gel which was applied to the inner arm and washed off in 24 hours. Fourteen days after the sensitization dose, 0.1 ml of 0.04% DPCP gel was applied to each wart, up to a total of 4 warts, for 7 consecutive weeks (Day 14, 21, 28, 35, 42, 49, 56). A final follow-up examination was performed on day 70. Patients were assessed at baseline and during each of 7 week treatment visits and on day 70 follow up.
# Efficacy was based on Lesion Surface Area. The size of each qualifying verruca wart was determined at each visit by measuring the longest dimension (long axis) and the corresponding widest dimension (90 to the long axis).
# Immunotherapeutic responses were characterized by grading the erythema, edema, induration, and scaling on a four-point scale: 0 (none) to 4 severe at each visit.
# as §1, with “endpoints were” for “endpoints are”, “Subjects were” for “Subjects are”, “Safety was” for “Safety is”, “system was” for “system is”
# Adults 18-75 years of age in general good health with at least one non-genital cutaneous wart 5-20 mm in size were eligible for participation in the study. […] Pregnant or nursing women were excluded. Patients with unstable medical condition or history of immunosuppression were excluded. Use of systemic steroids, immunosuppressants, immunomodulators or cimetidine was not allowed for 4 weeks prior to enrollment. Any prior wart therapy was not allowed for 4 weeks. […] Patients could not be actively enrolled in another clinical trial within the previous 30 days.
# [4] = 0.4% sensitizing dose, 0.04% challenge dose twice a week
# [5] = 0.4% sensitizing dose, 0.04% challenge dose weekly
structure (smiles),measurement,setting,value
"O=c1c(-c2ccccc2)c1-c1ccccc1 [DPCP, diphenylcyclopropenone]",sensitization,"[1]; 0.4% DPCP sensitization dose given to both treatment and placebo group, 7 subjects",all were successfully sensitized
same,side effects reported,[1]; [4],No significant side effects were reported other than skin rash at the sensitization site
same,tolerability reported by patients,[1]; [4],highly tolerable
same,treated warts that achieved greater than 50% clearance,"[1]; DPCP group, 1 of 6 warts",16%
same,treated warts that exhibited no clearance,"[1]; DPCP group, 1 of 6 warts",16%
same,treated warts with complete clearance,"[1]; DPCP group, 4/6 warts, 0.04% gel twice a week",67%
same,subjects who obtained a clinical response/improvement,"[1]; DPCP group, 4 of 5 subjects, 0.04% gel twice a week for 7 weeks",80%
same,Clearance Score,"[1]; at 5 weeks, 0.04% gel twice a week",5 weeks + 3
same,Clearance Score,"[1]; at 7 weeks, 0.04% gel twice a week, listed as DPC",7 weeks 0 and 7 weeks + 3 (3×) and 7 weeks + 2 (2 points=partial clearance: >50% reduction in the area of all treated wart)
same,"mutagenicity, teratogenicity and organ toxicity",[2],"not mutagenic, teratogenic and has no organ toxicity"
same,side effects reported,[3]; [5],No significant side effects were reported other than skin rash at the sensitization site
same,tolerability reported by patients,[3]; [5],highly tolerable
same,subjects who obtained a clinical response/improvement,"[3]; DPCP group, 8 subjects, 0.4% sensitizing dose, then 0.04% gel weekly for 7 weeks",100%
same,warts with complete clearance,"[3]; DPCP group, 11 of 25 warts, vs 1 of 15 vehicle treated warts, p=0.01",44%
same,warts with partial to complete clearance,"[3]; DPCP group, 19/25 warts, 0.4% sensitizing dose, then 0.04% gel weekly for 7 weeks",76%
same,severe reactions at the application site,[3]; challenge dose of 0.04% DPCP after 0.4% sensitizing dose,did not result in observable severe reactions at the application site
same,surrounding untreated warts completely cleared,"[3]; one subject with numerous mosaic warts on the plantar foot, the 4 treated warts also completely cleared",> 50
